Consider seven molecules from patent US7868006B2, “Heterocyclic substituted piperazines with CXCR3 antagonist activity” (Schering Corporation, priority 2005, dated 2011).

One may read the IC50 as the concentration at which inhibition is half-maximal.

A value given as a limit tells only on which side of the number the result lay.

In the assay the target is T1, human CXCR3 (N-delta 4) (Homo sapiens, UniProt P49682).
T1 construct: CD8 leader (N); Flag tag (N); expressed in transfected cells; host or cells: mouse pro-B Ba/F3 cells, stably transfected with pME18Sneo-hCXCR3 (N-delta 4); membrane preparation
T1 sequence (P49682 5-368 limits assumed): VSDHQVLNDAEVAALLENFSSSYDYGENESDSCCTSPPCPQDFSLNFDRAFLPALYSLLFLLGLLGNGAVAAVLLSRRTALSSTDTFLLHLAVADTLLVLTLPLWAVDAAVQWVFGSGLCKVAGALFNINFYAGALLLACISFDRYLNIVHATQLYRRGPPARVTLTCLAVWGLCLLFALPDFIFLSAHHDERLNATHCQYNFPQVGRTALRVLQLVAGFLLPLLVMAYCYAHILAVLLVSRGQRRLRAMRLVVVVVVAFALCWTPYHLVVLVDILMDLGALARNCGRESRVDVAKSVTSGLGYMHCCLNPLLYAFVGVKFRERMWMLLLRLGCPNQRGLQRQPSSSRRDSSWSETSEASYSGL
The assay can be described thus: Human CXCR3 (N-delta 4) Scintillation Proximity Assay (SPA), [125I] IP-10 binding. The note with it: IC50 rating; Ba/F3-hCXCR3 (N-delta 4) membranes, 25 pM [125I] IP-10; read-out: IC50. In outline: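 Membranes from mouse Ba/F3 pro-B cells stably expressing Flag-tagged human CXCR3 (N-delta 4), 2 μg per point, bound to WGA SPA beads. Compound titrations competed with 25 pM [125I] IP-10 for 3 hr at room temperature in HEPES buffer with Ca2+, Mg2+, NaCl, 1.0% BSA; bead-bound radioactivity counted, […] values reported.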
A general note: Scintillation proximity formats need no separation of bound from free tracer.
For the molecule `CCNc1nnc(-c2cnc(N3CCN(C4CCN(C(=O)c5ccc(Cl)c(F)c5)CC4)[C@@H](CC)C3)c(C)n2)o1` [Compound 164], the half-inhibitory concentration (IC50) was < 0.025 µM. As for `CC[C@H]1CN(c2ncc(-c3nc[nH]n3)nc2C)[C@H](C)CN1C1CCN(Cc2ccc(F)cc2)CC1` [Compound 106], the figure is < 0.025 µM; as for `CCNc1nnc(-c2cnc(N3CCN(C4CCN(C(C(=O)OC)c5ccc(Cl)cc5)CC4)[C@@H](CC)C3)c(C)n2)o1` (stereo partly shown) [Compound 182], < 0.025 µM.

As for `CC[C@H]1CN(c2ncc(C3=NCCN3)nc2C)[C@H](C)CN1C1CCN(C(=O)c2ccc(Cl)cc2)CC1` [Compound 116], the IC50 is < 0.025 µM. To `CC[C@H]1CN(c2nc(N)c(-c3nnc(N(C)C)o3)nc2Cl)CCN1C1CCN(C(=O)c2ccc(Cl)nc2N)CC1` [Compound 71] belongs < 0.025 µM; to `CC[C@H]1CN(c2nc(N)c(-c3n[nH]c(=O)o3)nc2Cl)CCN1C1CCN(Cc2ccc(Cl)cc2)CC1` [Compound 87], > 0.1 µM; to `CC[C@H]1CN(c2ncc(-c3nnc(C)o3)nc2Cl)CCN1C1CCN(C(=O)c2cc(F)c(Cl)nc2Cl)CC1` [Compound 33], < 0.025 µM.
